Patent publication US20260335282A1, “NOVEL 3-ARYLIDENE-2-INDOLINONE DERIVATIVES FOR THERAPEUTIC USE” (ISTANBUL UNIVERSITESI REKTORLUGU, priority 2022, published 2026)
Values joined by “and” are separate entries in the source; they are usually repeats but may differ in a detail not shown here. Equal values may be shown once. “Also recorded” adds a separate entry of the source.

Legend:
Type in all cases: cell-based, human
MCF-10F/Beas2b cells = assay: MTT cytotoxicity, healthy cells MCF-10F/Beas2b; settings: cancer line not given; for Selectivite Index, MCF-10F/Beas2b (Table 2): MCF-10F/Beas2b vs colon or pancreas cancer cells; for Selectivite Index (SI), MCF-10F/Beas2b (Table 1): MCF-10F/Beas2b vs breast or kidney cancer cells
Procedure, shortened: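 Cells seeded at 5000 per well were exposed next day to compounds at 0.1, 1, 5 and 10 μM for 48 and/or 72 h. MTT (5 mg/ml) was added for 4 h, formazan dissolved in DMSO, and absorbance read at 570 nm against 630 nm. IC50 came from dose-response curves of % viability versus DMSO controls.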

MIAPaCa-2 cells = assay: MTT cytotoxicity, pancreas cancer cells MIAPaCa-2; settings: for selectivity index: MCF-10F/Beas2b vs MIAPaCa-2
Procedure, shortened: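 Cells were seeded at 5000 per well and treated next day with compound at 0.1, 1, 5 and 10 μM (final) for 48 and/or 72 h, with matched DMSO controls. MTT was added for 4 h and formazan was dissolved in DMSO and read at 570/630 nm. % viability against control gave IC50 from dose-response curves.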

HUVEC cells = assay: MTT cytotoxicity, healthy cells HUVEC; settings: for Selectivite Index, HUVEC (Table 2): HUVEC vs colon or pancreas cancer cells; for Selectivite Index, HUVEC (Table 2) / Selectivite Index (SI), HUVEC (Table 1): cancer line not given; for IC50: MTT; for Selectivite Index (SI), HUVEC (Table 1): HUVEC vs breast or kidney cancer cells
Procedure, shortened: (§1)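 Healthy HUVEC cells grew in DMEM, cancer lines in RPMI-1640 or DMEM with 10% FBS. After overnight attachment, compounds (0.1, 1, 5, 10 μM) act for 48 and/or 72 h before a 4 h MTT step and 570/630 nm reading; IC50 is taken from dose-response curves.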

[1] = system: general tyrosine kinase activity in MIA PaCa-2 pancreas cancer cells; assay: General tyrosine kinase activity (ELISA) in MIAPaCa-2 cells; settings: 72 hours, IC50 concentration
Protocol: Takara Universal Tyrosine Kinase Assay Kit is used to determine the effects of 11 2-indolinone compounds (Y1, Y2, Y3, Y4, Y5, Y8, […], […], Y21, Y23, 20C, 22C) on general tyrosine kinase activity in cancer cells. Cells are seeded in 6-well plates (4.10^5 cells/well) and the IC50 concentration of each selected molecule is performed to the cells for 48 or 72 hours. Cells in the control group are incubated with medium only. At the end of the incubation period, the cells in each well are washed with PBS and cells are removed from the wells using a cell scraper via 1 ml of the extraction buffer in the kit. The cell lysate is transferred to ependorf tubes and centrifuged at 10.000 g for 10 minutes at +4° C. and the supernatant is used as a sample for activity determination. After the extracts obtained from the control and experimental groups are diluted 1:25, 40 μl extracts is transferred to two wells in the 96-well plate in the kit. In addition, the standard solution in the kit is diluted according to the kit instructions and each concentration is transferred 40 μl into three wells. 10 μl of 40 mM ATP-2Na solution is added to all wells and the plate is incubated at 37° C. for 30 minutes. After incubation, all wells are washed 4 times with wash buffer. 100 μl of blocking solution is added to each well and incubated again at 37° C. for 30 minutes. After incubation, the liquid in the wells is discarded and 50 μl of anti-phosphotyrosine-HRP solution is added to each well and incubated at 37° C. for 30 minutes. The wells are washed again four times with wash buffer and 100 μl of HRP-substrate solution (TMBZ) is added to each well and incubated at 37° C. for 15 minutes. The reaction is finished by adding 100 μl of stop solution to each well and the optical density in each well is measured at 405 nm with a microplate reader (BioTek, USA). The tyrosine kinase activity in each sample is calculated from the standard curve obtained from the absorbance values of the standard solutions with the kit (Chan W Y, Lau P M, Yeung K W, Kong S K. The second generation tyrosine kinase inhibitor dasatinib induced eryptosis in human erythrocytes—An in vitro study. Toxicol Lett. 2018; 295:10-21). This activity is normalized compared to the control group by dividing by the amount of protein in each sample.
The effects of 11 2-indolinone compounds (Y1, Y2, Y3, Y4, Y5, Y8, Y14, Y21, Y23, 20C and 22C) having the structure of formula (5), which are prominent with their cytotoxicity in A498, MIAPaCa-2 and HCT-116 cancer cell lines and nontoxic properties in healthy cells, on general tyrosine kinase activity in cancer cells are determined.

A549 cells = assay: MTT cytotoxicity, lung cancer cells A549
Procedure, shortened: as §1

CAKI-1 cells = assay: MTT cytotoxicity, kidney cancer cells CAKI-1
Procedure, shortened: as §1

[2] = MTT, no * mark (incubation time not specified)
[3] = no * mark (incubation time not specified)

Structure (SMILES) | Selectivite Index, MCF-10F/Beas2b (Table 2) (MCF-10F/Beas2b cells) | selectivity index (MIAPaCa-2 cells) | IC50 (MIAPaCa-2 cells; [2]) [µM] | Selectivite Index, HUVEC (Table 2) (HUVEC cells) | IC50 (HUVEC cells; [3]) [µM] | general tyrosine kinase activity compared to control [1] | IC50 (A549 cells; [3]) [µM] | IC50 (CAKI-1 cells; [3]) [µM] | Selectivite Index (SI), MCF-10F/Beas2b (Table 1) (MCF-10F/Beas2b cells) | IC50 (MIAPaCa-2 cells; Homo sapiens, MIA PaCa-2, MTT, no * mark (incubation time not given)) [µM] | Selectivite Index (SI), HUVEC (Table 1) (HUVEC cells) | IC50 (HUVEC cells; Homo sapiens, HUVEC, no * mark (incubation time not given)) [µM] | IC50 (A549 cells; Homo sapiens, A549, no * mark (incubation time not given)) [µM] | IC50 (CAKI-1 cells; Homo sapiens, CAKI-1, no * mark (incubation time not given)) [µM]
O=C1/C(=C\c2c[nH]c3ccccc23)c2ccccc2N1Cc1ccccc1 [Y1] | > 23.25 | > 23 | 0.43 | 6.60 | 2.84 | significantly decreased; also recorded: decreased the general tyrosine kinase activity | 9.72 | 3.38 | – | – | – | – | – | –
Cc1ccc2c(c1)/C(=C/c1c[nH]c3ccccc13)C(=O)N2Cc1ccccc1 [Y3] | > 76.92 | > 77 | – | 12.69 | – | significantly decreased; also recorded: decreased the general tyrosine kinase activity | – | – | > 11.49 | 0.13 | 1.89 | 1.65 | 3.97 | 4.01
Cc1ccc2c(c1)/C(=C/c1c[nH]c3ccccc13)C(=O)N2Cc1cccc(F)c1 [Y8] | > 18.52 | > 19 | 0.54 | 4.07 | 2.2 | significantly decreased; also recorded: decreased the general tyrosine kinase activity | 8.76 | 3.28 | > 10.75 | – | 2.36 | – | – | –
O=C1/C(=C\c2c[nH]c3ccccc23)c2cc(OC(F)(F)F)ccc2N1Cc1ccccc1 [Y4] | > 17.54 and > 18.87 | > 19 | 0.53 | 4.28 and 4.60 | 2.44 | significantly decreased; also recorded: decreased the general tyrosine kinase activity | > 10 | 3.79 | – | – | – | – | – | –
